Measurements from patent publication US10407488B2, “Therapy for treatment or prevention of conditions associated with bleeding or hypocoagulation” (THE REGENTS OF THE UNIVERSITY OF CALIFORNIA, priority 2013, dated 2019).

Assays:
[1] = test system: thrombin generation in normal human plasma; experiment: Thrombin generation in NHP in the presence of rivaroxaban or apixaban; assay type: biochemical; conditions: factor alone: rhFVIIa 2 μg/ml, ^superFVa 400 nM; NOAC 200 nM
Method: Thrombin generation or Endogenous Thrombin Potential (ETP) assays were performed as described. Briefly, plasma samples supplemented with CTI, TF, PCPS were preincubated […] in the presence or absence of rivaroxaban, apixaban, Kcentra®, NovoSeven® or ^superFVa. Thrombin generation was initiated by addition of CaCl2 and Z-Gly-Gly-Arg-AMC in HBS/0.5% BSA. The final reaction mixture contained, 50% plasma, 0.725 μM CTI, 0.2 Pm TF, 4 μM PCPS vesicles, 0.5 mM Z-GGR-AMC, 7.6 mM CaCl2 in a total volume of 100 μl. Concentrations of rivaroxaban, apixaban, Kcentra®, NovoSeven® or ^superFVa are indicated in the result section and in the figure legends. Fluorescence was measured at excitation/emission wavelengths of […] using Gemini EM fluorescent plate reader (Molecular Devices). Fluorescence time course data were converted to Nm thrombin as described. ETP, defined as the area under the curve (AUC) and the peak height were determined using Origin software.

[2] = test system: thrombin generation in normal human plasma with rhAPC; experiment: Thrombin generation in normal human plasma in the presence of rhAPC; assay type: biochemical
Method: BU titer values for FVIII antibodies added to FVIII-deficient plasma were determined using a modified Nijmegen Bethesda assay (Barrow and Lollar; JTH 2006, 4:2223-2229). Briefly, antibody was serially diluted in HBS with 0.05% Tween 80 and mixed 1:1 with pooled normal plasma that was supplemented with 100 mM Imidazole, pH 7.0. Samples were incubated at 37° C. for 2 hours then assayed by aPTT with APTT XL reagent (Pacific Hemostasis). A standard curve was derived from a serial dilution of normal plasma into FVIII deficient plasma that was also mixed 1:1 with HBST and incubated at 37° C. for 2 hours. Percent FVIII activity was plotted versus mg/ml of antibody and residual activity of 50% was defined as 1 BU/ml. In addition, endogenous thrombin potential (ETP) assays were performed as described (3). Briefly FVa mutants or saline were added to human or murine plasma (George King Bio-Medical; mouse source, 50% v/v) supplemented with […] corn trypsin inhibitor (Haematologic Technologies), 10 mM CaCl2, 10 μM phospholipid vesicles (80% phosphatidylcholine, 20% phosphatidylserine, prepared as described (6), 0.2 pM soluble tissue factor (Innovin®, Dade Behring), and 0.4 mM Z-Gly-Gly-Arg-AMC (thrombin substrate, Bachem) in HBS. After mixing, 100 μL was transferred to a FluoroNunc microtiter plate at 37° C. to monitor fluorescence (excitation at 360 nm/emission at 460 nm; Gemini EM fluorescent plate reader (Molecular Devices)). Fluorescence time course data were converted to nM thrombin as described (7). ETP, defined as the area under the curve, was determined using Prism 5.04 (Graphpad).
(§1) APC-mediated inactivation of FVa was analyzed in ETP assays and aPTT clotting assays. FVa mutants were incubated with equal volumes of either recombinant human APC (Xigris®) or buffer in human and murine Balb/c plasma.

[3] = test system: aPTT clotting time in murine plasma; experiment: aPTT clotting assay in murine plasma with rhAPC; assay type: biochemical, mouse; conditions: 5 U/mL FVa variants, APC, ~100 seconds without FVa
Method: as §1
Plasma (50 μL) was mixed with 50 μL of a PTT reagent (APTT-XL, Pacific Hemostasis) and incubated at 37° C. for 3 minutes in the presence of FVa either with recombinant human APC or buffer. Following addition of 25 μL of 50 mM CaCl2 in HBS, 0.5% BSA, the clotting time was recorded using an ST4 coagulometer (Diagnostica Stago).

[4] = test system: thrombin generation in plasma of patients with congenital FVIII-deficiency and inhibitors; experiment: Thrombin generation in plasma of patients with congenital FVIII-deficiency and high titer inhibitors, spiked in vitro; assay type: biochemical, human; conditions: factor alone; five patient samples, BU-titer 41-280
Description: Normal pooled human plasma and plasma from human FVIII-deficient patients with and without inhibitors (titer specified in Bethesda Units (BU)) was purchased from George King Bio-Medical (Overland Park, Kans., USA). In addition, plasma and clinical information was obtained from two patients with severe FVIII-deficiency (<1% intrinsic FVIII-activity levels) and inhibitors (titers determined in BU by the clinical laboratory using the Nijmegen assay (17) regularly visiting the Hemophilia Treatment Center at the University of California, San Diego (UCSD) after informed consent was obtained. Patient confidentiality safeguards, sample and data acquisition methods were approved by the UCSD Institutional Review Board. Blood was drawn into 3.8% sodium citrate (pH 5.5) at a 9:1 blood/anticoagulant volume ratio, and processed immediately. […]
Endogenous thrombin potential (ETP) assays were performed as described (19). […] In some experiments, 1.25 μg/ml anti-FVIII antibody was added to the plasma and ETP was determined after 1 hour of preincubation. Fluorescence was measured at excitation/emission wavelengths of […] using Gemini EM fluorescent plate reader (Molecular Devices). Fluorescence time course data were converted to nM thrombin as described (20). ETP, defined as the area under the curve (AUC) and the peak height were determined using Origin or GraphPad Prism software.

[5] = test system: thrombin generation in FVIII-deficient plasma; experiment: Thrombin generation (ETP) assay in FVIII-deficient plasma; assay type: biochemical, human; conditions: increasing concentrations of ^superFVa alone
Method: Endogenous thrombin potential (ETP) assays were performed as described (19). Briefly, plasma samples supplemented with CTI, TF, PCPS vesicles and coagulation factors were preincubated with the plasma at 37° C. Thrombin generation was initiated by addition of CaCl2 and Z-Gly-Gly-Arg-AMC in HBS/0.5% BSA. The final reaction mixture contained, 50% plasma, 0.2 pM TF, […] PCPS vesicles, 0.725 μM CTI, 0.5 mM Z-GGR-AMC and 7.6 mM CaCl2 in a total volume of 100 μL. In some experiments, 1.25 μg/ml anti-FVIII antibody was added to the plasma and ETP was determined after 1 hour of preincubation. Fluorescence was measured at excitation/emission wavelengths of […] using Gemini EM fluorescent plate reader (Molecular Devices). Fluorescence time course data were converted to nM thrombin as described (20). ETP, defined as the area under the curve (AUC) and the peak height were determined using Origin or GraphPad Prism software.

Substance: ^superFVa: engineered APC-resistant FVa variant (SEQ ID NO:4): R306Q, R506Q, R679Q, Cys609-Cys1691 disulfide, S2183A, B-domain deleted
- ability to enhance the ETP of NHP suppressed with rivaroxaban or apixaban [1]: nor ^superFVa at high concentration (400 nM) were able to enhance the ETP
- rescue of APC-induced reduction of thrombin generation ([2]; factor alone, rhAPC, normal human plasma (FIG. 16)): corrected thrombin generation to levels to those of normal human plasma
- ETP restored ([2]; human plasma, ETP maximally suppressed by APC): 90-100%
- effect on thrombin generation suppressed by APC ([2]; human plasma, concentrations where ^superFVa restores): fully restored thrombin generation
- aPTT [3]: fully corrected the aPTT
- effect on ETP and peak height [4]: increased ETP and peak height in all five patient samples
- increase in ETP [5]: ~2.5 fold
- increase in peak height [5]: ~2.5 fold
